The supplement of paper PMC12463676, “Small-molecule dissolution of stress granules by redox modulation benefits ALS models” (Nature Chemical Biology, 2025)

Columns and labels:
potassium arsenate = compound: O=[As]([O-])(O)O.[K+] [potassium arsenate]; assay: thermal stability z-score vs DMSO; higher = more thermally stabilized by treatment; conditions: HeLa; arsenate concentration 1 mM
Procedure: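 Cellular thermal proteome profiling in HeLa cells treated with 1 mM arsenate for 1 h (DMSO pretreatment), heated to ten temperatures (37-66.3 °C). Soluble protein was quantified by TMT mass spectrometry relative to DMSO controls; the thermal stability score was transformed to a z-score; mean of n = 3 experiments.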

lipoamide = compound: NC(=O)CCCCC1CCSS1 [lipoamide]; assay: as above; conditions: HeLa, lipoamide concentration 100 µM
Procedure: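 Cellular thermal proteome profiling in HeLa cells. Cells were treated with 100 µM lipoamide for 1 h, with or without 1 mM arsenate for a further 1 h, then heated to ten temperatures (37-66.3 °C), and soluble protein was quantified by TMT mass spectrometry relative to 0.1% DMSO controls. The thermal stability score (sum of log2 fold changes minus the abundance score) was transformed to a z-score; mean of n = 3 experiments.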

[1] = arsenate co-treatment: 1 mM arsenate 1 h
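Note: each temperature applied for 3 min, abundance score taken as mean log2 fold change at the two lowest temperatures, z-score obtained by mean subtraction and division by SD.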

Sequence of UniProt P40261 (P40261 whole entry): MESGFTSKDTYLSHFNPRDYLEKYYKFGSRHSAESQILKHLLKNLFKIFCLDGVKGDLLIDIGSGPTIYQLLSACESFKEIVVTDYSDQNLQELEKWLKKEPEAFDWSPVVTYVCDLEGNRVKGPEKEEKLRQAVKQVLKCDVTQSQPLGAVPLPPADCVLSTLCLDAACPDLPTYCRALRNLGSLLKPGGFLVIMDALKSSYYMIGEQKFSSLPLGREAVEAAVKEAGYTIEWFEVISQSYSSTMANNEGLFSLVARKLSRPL
Sequence of UniProt O00567 (O00567 whole entry): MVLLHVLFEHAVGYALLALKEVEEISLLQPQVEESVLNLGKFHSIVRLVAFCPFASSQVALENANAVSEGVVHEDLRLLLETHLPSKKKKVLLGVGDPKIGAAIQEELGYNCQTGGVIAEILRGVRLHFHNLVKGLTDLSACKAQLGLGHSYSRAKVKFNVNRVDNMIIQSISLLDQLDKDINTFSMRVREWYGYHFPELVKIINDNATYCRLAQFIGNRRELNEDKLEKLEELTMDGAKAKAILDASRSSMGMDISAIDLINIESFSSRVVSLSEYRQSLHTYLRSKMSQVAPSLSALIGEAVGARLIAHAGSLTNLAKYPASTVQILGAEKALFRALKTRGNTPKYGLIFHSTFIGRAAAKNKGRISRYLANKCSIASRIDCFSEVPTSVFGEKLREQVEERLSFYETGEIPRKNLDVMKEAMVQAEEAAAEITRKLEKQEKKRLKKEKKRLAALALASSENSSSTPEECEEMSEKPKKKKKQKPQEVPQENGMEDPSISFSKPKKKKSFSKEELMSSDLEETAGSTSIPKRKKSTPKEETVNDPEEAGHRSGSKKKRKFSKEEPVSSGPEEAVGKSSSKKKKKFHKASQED
Sequence of UniProt O75052 (O75052 whole entry): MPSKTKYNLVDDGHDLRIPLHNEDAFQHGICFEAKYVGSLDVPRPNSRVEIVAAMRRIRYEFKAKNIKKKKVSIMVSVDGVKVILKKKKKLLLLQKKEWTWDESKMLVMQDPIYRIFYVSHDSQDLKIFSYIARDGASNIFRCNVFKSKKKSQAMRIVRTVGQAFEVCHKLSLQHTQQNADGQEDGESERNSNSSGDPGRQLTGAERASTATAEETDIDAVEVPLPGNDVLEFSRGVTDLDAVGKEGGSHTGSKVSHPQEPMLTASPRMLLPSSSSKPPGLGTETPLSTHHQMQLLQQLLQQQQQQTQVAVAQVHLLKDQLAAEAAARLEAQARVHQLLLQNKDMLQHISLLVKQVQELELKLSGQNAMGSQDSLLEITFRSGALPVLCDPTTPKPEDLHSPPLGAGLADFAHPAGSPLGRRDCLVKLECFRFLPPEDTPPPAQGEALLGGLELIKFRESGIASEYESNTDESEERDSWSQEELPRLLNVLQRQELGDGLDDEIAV
Sequence of UniProt Q86UT6 (Q86UT6 whole entry): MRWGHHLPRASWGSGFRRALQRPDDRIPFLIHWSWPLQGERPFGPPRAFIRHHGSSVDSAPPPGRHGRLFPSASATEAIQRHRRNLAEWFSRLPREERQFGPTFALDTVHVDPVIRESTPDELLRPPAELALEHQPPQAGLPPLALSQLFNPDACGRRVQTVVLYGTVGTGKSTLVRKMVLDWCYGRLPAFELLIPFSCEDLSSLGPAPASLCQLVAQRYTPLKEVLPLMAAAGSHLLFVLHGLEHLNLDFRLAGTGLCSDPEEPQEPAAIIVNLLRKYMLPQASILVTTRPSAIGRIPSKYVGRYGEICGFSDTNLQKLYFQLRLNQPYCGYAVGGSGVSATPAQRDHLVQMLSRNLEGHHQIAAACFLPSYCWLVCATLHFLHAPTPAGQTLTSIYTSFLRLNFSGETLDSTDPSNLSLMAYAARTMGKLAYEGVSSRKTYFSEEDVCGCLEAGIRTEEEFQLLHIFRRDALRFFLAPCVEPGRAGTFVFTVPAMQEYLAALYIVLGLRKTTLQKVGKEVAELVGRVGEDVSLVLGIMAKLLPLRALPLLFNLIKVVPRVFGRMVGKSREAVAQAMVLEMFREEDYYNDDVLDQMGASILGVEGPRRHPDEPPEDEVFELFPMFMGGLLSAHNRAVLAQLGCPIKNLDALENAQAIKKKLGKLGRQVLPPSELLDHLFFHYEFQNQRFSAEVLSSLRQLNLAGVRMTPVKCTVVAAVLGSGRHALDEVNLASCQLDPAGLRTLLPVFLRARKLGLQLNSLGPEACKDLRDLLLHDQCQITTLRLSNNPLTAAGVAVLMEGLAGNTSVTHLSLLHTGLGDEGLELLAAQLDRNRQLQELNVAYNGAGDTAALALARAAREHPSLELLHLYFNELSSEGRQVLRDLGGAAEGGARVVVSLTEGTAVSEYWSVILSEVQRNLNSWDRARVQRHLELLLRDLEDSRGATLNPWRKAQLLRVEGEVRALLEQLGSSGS
Sequence of UniProt Q13232 (Q13232 whole entry): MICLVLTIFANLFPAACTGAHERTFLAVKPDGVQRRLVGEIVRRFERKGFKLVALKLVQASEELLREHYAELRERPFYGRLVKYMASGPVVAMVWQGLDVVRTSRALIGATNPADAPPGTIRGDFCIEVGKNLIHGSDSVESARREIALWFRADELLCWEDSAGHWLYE
Sequence of UniProt Q9H6W3 (Q9H6W3 whole entry): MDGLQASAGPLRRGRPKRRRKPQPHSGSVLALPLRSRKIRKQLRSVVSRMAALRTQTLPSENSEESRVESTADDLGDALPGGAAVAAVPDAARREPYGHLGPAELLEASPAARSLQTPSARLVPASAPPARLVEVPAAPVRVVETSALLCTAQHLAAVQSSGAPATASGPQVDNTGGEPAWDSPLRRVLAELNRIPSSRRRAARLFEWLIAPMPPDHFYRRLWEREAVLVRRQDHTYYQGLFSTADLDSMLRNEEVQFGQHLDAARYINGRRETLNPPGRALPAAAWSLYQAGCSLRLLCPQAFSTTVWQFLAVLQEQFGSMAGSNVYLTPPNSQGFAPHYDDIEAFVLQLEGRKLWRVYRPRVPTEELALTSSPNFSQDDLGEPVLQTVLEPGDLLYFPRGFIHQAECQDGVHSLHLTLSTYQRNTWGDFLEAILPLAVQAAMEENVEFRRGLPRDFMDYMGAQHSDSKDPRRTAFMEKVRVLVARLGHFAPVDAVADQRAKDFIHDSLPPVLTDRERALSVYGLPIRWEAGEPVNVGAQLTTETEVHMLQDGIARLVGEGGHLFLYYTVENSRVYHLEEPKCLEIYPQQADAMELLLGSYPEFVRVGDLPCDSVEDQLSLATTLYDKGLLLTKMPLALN
Sequence of UniProt Q13287 (Q13287 whole entry): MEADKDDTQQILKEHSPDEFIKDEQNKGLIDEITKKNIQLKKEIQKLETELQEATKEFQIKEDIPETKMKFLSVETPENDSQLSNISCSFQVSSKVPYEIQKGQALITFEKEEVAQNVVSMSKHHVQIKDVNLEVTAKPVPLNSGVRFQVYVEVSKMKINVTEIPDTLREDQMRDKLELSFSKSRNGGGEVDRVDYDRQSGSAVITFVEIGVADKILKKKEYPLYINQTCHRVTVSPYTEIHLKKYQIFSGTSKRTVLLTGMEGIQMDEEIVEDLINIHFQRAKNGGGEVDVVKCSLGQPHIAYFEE
Sequence of UniProt Q8TAT6 (Q8TAT6 whole entry): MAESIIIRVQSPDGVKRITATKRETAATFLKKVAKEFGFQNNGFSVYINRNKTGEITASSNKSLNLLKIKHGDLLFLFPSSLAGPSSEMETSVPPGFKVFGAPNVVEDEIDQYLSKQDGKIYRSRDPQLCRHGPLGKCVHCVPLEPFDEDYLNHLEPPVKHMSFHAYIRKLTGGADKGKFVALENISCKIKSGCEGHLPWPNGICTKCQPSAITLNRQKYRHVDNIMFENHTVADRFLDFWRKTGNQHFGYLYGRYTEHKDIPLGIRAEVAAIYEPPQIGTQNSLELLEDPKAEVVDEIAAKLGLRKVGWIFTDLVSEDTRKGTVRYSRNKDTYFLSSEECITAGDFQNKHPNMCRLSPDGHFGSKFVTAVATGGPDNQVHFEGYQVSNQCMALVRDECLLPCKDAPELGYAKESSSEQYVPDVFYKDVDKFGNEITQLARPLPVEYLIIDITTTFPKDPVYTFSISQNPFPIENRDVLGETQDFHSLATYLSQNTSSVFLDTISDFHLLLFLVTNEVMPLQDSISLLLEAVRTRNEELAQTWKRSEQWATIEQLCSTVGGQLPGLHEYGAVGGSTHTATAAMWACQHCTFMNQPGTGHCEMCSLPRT
Sequence of UniProt Q9ULX3 (Q9ULX3 whole entry): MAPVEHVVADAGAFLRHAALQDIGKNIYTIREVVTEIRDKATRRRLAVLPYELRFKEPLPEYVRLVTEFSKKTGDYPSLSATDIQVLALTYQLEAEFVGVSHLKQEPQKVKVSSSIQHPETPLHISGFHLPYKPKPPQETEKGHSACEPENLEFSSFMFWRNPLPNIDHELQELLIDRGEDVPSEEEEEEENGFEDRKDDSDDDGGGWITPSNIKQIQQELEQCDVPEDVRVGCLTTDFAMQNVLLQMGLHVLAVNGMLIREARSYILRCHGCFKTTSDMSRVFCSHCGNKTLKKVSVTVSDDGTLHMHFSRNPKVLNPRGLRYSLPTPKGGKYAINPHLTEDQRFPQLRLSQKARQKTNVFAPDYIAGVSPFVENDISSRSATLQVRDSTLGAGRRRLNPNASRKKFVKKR
Sequence of UniProt Q9NYS0 (Q9NYS0 whole entry): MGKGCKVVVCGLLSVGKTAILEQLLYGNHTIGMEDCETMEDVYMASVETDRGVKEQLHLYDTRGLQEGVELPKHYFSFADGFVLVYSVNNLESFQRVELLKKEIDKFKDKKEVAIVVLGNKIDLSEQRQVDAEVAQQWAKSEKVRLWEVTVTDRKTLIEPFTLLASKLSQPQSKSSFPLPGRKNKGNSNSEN
Sequence of UniProt Q9HAN9 (Q9HAN9 whole entry): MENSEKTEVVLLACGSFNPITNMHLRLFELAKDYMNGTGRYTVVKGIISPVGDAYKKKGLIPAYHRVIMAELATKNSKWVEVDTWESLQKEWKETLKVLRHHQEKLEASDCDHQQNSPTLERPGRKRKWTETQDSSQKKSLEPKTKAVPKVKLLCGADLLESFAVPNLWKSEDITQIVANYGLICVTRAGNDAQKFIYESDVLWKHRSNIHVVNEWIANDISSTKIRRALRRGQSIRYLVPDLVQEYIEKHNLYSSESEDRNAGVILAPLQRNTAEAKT

Target	thermal stability z-score (potassium arsenate)	thermal stability z-score (lipoamide; [1])	thermal stability z-score (lipoamide; arsenate co-treatment: none)
NIPSNAP3A (UniProt Q9UFN0)	0.337	0.144	0.432
NIT1 (UniProt Q86X76)	0.439	0.836	0.924
NIT2 (UniProt Q9NQR4)	0.0727	0.25	0.109
NKIRAS1 (UniProt Q9NYS0)	-0.0379	-0.202	-0.125
NKIRAS2 (UniProt Q9NYR9)	0.137	0.0549	-0.0133
NKRF (UniProt O15226)	-0.311	-0.0267	0.00359
NLE1 (UniProt Q9NVX2)	-2.71	0.481	0.2
NLN (UniProt Q9BYT8)	-0.079	-0.0488	0.000162
NLRX1 (UniProt Q86UT6)	-0.0617	0.128	0.211
NMD3 (UniProt Q96D46)	-0.0507	0.204	0.115
NME1|NME2	0.487	0.455	0.432
NME3 (UniProt Q13232)	0.673	0.0656	0.615
NME4 (UniProt O00746)	-1.86	-1.03	-1.25
NME6 (UniProt O75414)	0.083	0.102	0.493
NME7 (UniProt Q9Y5B8)	-0.13	0.000387	0.0484
NMI (UniProt Q13287)	2.1	1.24	0.324
NMNAT1 (UniProt Q9HAN9)	1.87	1.03	1.15
NMRAL1 (UniProt Q9HBL8)	1.37	1.43	1.45
NMT1 (UniProt P30419)	1.15	0.237	-0.0177
NNMT (UniProt P40261)	0.0978	1.79	1.62
NNT (UniProt Q13423)	0.0461	0.176	0.166
NO66 (UniProt Q9H6W3)	0.842	0.635	0.483
NOA1 (UniProt Q8NC60)	-0.0924	0.222	0.0658
NOB1 (UniProt Q9ULX3)	-0.873	-0.423	-0.679
NOC2L (UniProt Q9Y3T9)	0.0133	0.154	0.208
NOC4L (UniProt Q9BVI4)	0.214	0.134	0.00403
NOCT (UniProt Q9UK39)	0.112	-0.088	-0.117
NOL3 (UniProt O60936)	0.236	0.615	0.549

Target	thermal stability z-score (potassium arsenate)	thermal stability z-score (lipoamide; [1])	thermal stability z-score (lipoamide; arsenate co-treatment: none)
NOL6 (UniProt Q9H6R4)	-0.592	0.328	-0.0357
NOL7 (UniProt Q9UMY1)	-0.698	0.225	-0.325
NOL11 (UniProt Q9H8H0)	-0.0716	0.118	0.00868
NOL12|V9GYY5 (UniProt V9GYY5)	0.699	0.0645	-1.5
NOLC1 (UniProt Q14978)	-0.695	0.36	0.113
NOMO1 (UniProt Q15155)	0.353	-0.893	-1.83
NOMO2 (UniProt Q5JPE7)	0.407	-3.91	-3.99
NONO (UniProt Q15233)	-0.137	1.05	0.927
NOP2 (UniProt P46087)	-0.016	0.976	-0.163
NOP9 (UniProt Q86U38)	-0.372	0.182	0.121
NOP10 (UniProt Q9NPE3)	0.522	0.405	-0.0767
NOP14 (UniProt P78316)	-0.581	-0.68	-0.438
NOP16 (UniProt Q9Y3C1)	-1.68	-0.153	-0.677
NOP56 (UniProt O00567)	0.516	0.756	-0.0331
NOP58 (UniProt Q9Y2X3)	0.471	0.0369	-0.0387
NOS1AP (UniProt O75052)	-1.45	0.676	-0.0802
NOSIP (UniProt Q9Y314)	2.36	-1.04	-0.0974
NOTCH1 (UniProt P46531)	-0.0336	0.143	0.13
NOTCH2 (UniProt Q04721)	-0.309	-1.45	-1.57
NPC1 (UniProt O15118)	0.0121	-0.389	-0.182
NPC2 (UniProt P61916)	-0.391	0.0993	0.738
NPEPL1 (UniProt Q8NDH3)	1.2	-0.24	-0.808
NPEPPS (UniProt P55786)	0.725	0.502	0.202
NPLOC4 (UniProt Q8TAT6)	-0.0761	-0.0676	0.0243
NPM1 (UniProt P06748)	-1.07	1.35	0.674
NPM3 (UniProt O75607)	-0.95	0.175	0.102
NPR1 (UniProt P16066)	0.119	-0.594	-0.153
